Changes are numbered by the printed parent chain.
Assays:
[1] = molecular target: T1, AT1 S109A mutant receptor (Rattus norvegicus, UniProt P25095, S109A); assay: competition binding, S109A mutant; conditions: for Kd ratio relative to WT (in parentheses): S109A / WT; for Kd: S109A, COS1 membranes, read-out: Binding affinity (Kd)
T1 construct: expressed in transfected cells; host or cells: COS1
T1 sequence (P25095 1-359 S109A): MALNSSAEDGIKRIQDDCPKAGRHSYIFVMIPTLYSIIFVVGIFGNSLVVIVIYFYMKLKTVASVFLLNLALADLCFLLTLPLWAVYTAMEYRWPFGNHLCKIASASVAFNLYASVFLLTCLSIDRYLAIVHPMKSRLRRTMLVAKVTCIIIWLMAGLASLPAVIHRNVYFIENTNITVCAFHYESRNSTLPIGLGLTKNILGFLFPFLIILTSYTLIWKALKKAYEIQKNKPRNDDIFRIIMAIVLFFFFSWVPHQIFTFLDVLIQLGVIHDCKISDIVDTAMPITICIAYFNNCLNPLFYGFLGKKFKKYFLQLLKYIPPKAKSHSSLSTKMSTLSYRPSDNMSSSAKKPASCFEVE
Procedure: (§1) The Kd and Bmax values of receptor binding were determined by ^125I-[Sar^1, Ile^8] […] Membranes expressing the WT or mutant AT1 receptors were incubated with 100 pM ^125I-[Sar^1, Ile^8] […] The binding reaction was terminated by filtering the incubation mixture through Whatman GF/C glass filters, and the residues were extensively washed further with binding buffer. The bound ligand fraction was determined from the counts per minute (cpm) remaining on the membrane. Binding kinetics values were determined as previously described.

[2] = molecular target: T2, AT1 C76A/L112C/C289A mutant receptor (Rattus norvegicus, UniProt P25095, C289A/C76A/L112C); assay: substituted cysteine accessibility mapping (SCAM), C76A/L112C/C289A; type: binding; design: key to Cysteine accessibility at Leu112 compared to ligand (-): Less and More indicate that the AT1 receptor is less or more accessible to the ligand pocket, respectively; Less and More indicate that the AT1 receptor is less or more accessible to the ligand pocket, respectively; No change; conditions: for % inhibition of 125I-[Sar1,Ile8]Ang II binding by MTSEA+ after ligand pre-incubation: C76A/L112C/C289A mutant, 1 µM ligand, comparison in words; for Cysteine accessibility at Leu112 compared to ligand (-): SCAM, 1 µM ARB, […] MTSEA+, COS1 membranes
T2 construct: expressed in transfected cells; host or cells: COS1
T2 sequence (P25095 1-359 C76A/L112C/C289A): T1 sequence (P25095 1-359 S109A) with C76A, A109S, L112C, C289A
Description: As we reported previously, the percentage (%) inhibition of ^125I-[Sar^1, Ile^8] AngII binding by methanethiosulphonate ethyl-ammonium (MTSEA^+) reagent was approximately 30% on AT1 receptor, since Cys^76 in TM2 was accessible to water within the ligand pocket. In addition, mechanical stretching increased the accessibility of Cys^289 by inducing a change in the conformation of TM7 [22]. To differentiate between single and multiple movements of one or more native cysteines, we created TM3 residues that were substituted with cysteine one at a time from […] to Phe^117 using the C76A/C289A mutant genetic background and evaluated each triple mutant for MTSEA sensitivity.
Figure 3 Changes in cysteine accessibility in COS1 cells expressing C76A/C289A mutant receptors in which the transmenbrane 3 residues from Ala^106 to Phe^117, except for position 113, were successively replaced by cysteine. 1 µM of ARBs, n=4–9, *p<0.05 vs. no treatment. #p<0.05 vs. C76A/C289A.
The SCAM method has been used to probe relative changes in the conformation of constitutively active AT1 receptor [20]–[22] and other GPCRs, [30] by validating the presence of Cys residues within the ligand pocket. We used a highly reactive, sulfhydryl-specific reaction with methanethiosulfonyl ethyl-ammonium (MTSEA^+), which reacts a billion times faster with water-exposed and ionized Cys than with lipid-exposed and un-ionized Cys. In this reaction, a positively charged sulfonylmethylammonium group is added to a water-exposed Cys. Aliquots of cell membranes are incubated with or without ARBs for 20 min in phosphate buffer at room temperature. The membranes are then diluted with same buffer and centrifuged. After washout the cell membranes, the membranes are incubated with 2.5 mM MTSEA^+ at room temperature for 2 min in HEPES buffer (pH7.4). The Membranes are then diluted with same buffer to stop the reaction and centrifuged. One hundred µl aliquots were used to assay for ^125I-[Sar^1,Ile^8]Ang II binding. The fractional inhibition is calculates 1 − [(specific binding after MTX reagent) / (specific binding without reagent)].

[3] = molecular target: T3, AT1 S105A mutant receptor (Rattus norvegicus, UniProt P25095, S105A); assay: competition binding, S105A mutant; conditions: for Kd: S105A (S105 in the source), COS1 membranes, read-out: Binding affinity (Kd); for Kd ratio relative to WT (in parentheses): S105A / WT
T3 construct: expressed in transfected cells; host or cells: COS1
T3 sequence (P25095 1-359 S105A): T1 sequence (P25095 1-359 S109A) with S105A, A109S
Procedure: as §1

[4] = molecular target: T4, AT1 C76A/V108C/C289A mutant receptor (Rattus norvegicus, UniProt P25095, C289A/C76A/V108C); assay: competition binding, C76A/V108C/C289A mutant; conditions: for Kd ratio relative to WT (in parentheses): C76A/V108C/C289A / WT; for Kd: C76A/V108C/C289A, COS1 membranes, read-out: Binding affinity (Kd)
T4 construct: expressed in transfected cells; host or cells: COS1
T4 sequence (P25095 1-359 C76A/V108C/C289A): T1 sequence (P25095 1-359 S109A) with C76A, V108C, A109S, C289A
Procedure: as §1

| Structure (SMILES) | Kd ratio relative to WT (in parentheses) [1] | Kd [1] | % inhibition of 125I-[Sar1,Ile8]Ang II binding by MTSEA+ after ligand pre-incubation [2] | Cysteine accessibility at Leu112 compared to ligand (-) [2] | Cysteine accessibility at Leu112 compared to ligand (-) ([2]; listed as olmesartan) | Kd [3] | Kd ratio relative to WT (in parentheses) [4] | Kd [4] | Kd ratio relative to WT (in parentheses) [3] |
| --- | --- | --- | --- | --- | --- | --- | --- | --- | --- |
| CCCc1nc(C(C)(C)O)c(C(=O)O)n1Cc1ccc(-c2ccccc2-c2nnn[nH]2)cc1 [Olmesartan, olmesartan, reference compound] | 1.1 fold | 2.5 ± 0.8 nM | significantly lower than that with ligand (-) | Less | less accessibility | 6.7 ± 3.8 nM | 14 fold | 32 ± 1 nM |  |
| CCCc1nc(C(C)(C)O)c(C(N)=O)n1Cc1ccc(-c2ccccc2-c2nnn[nH]2)cc1 [R239470] | 1.1 fold | 0.9 ± 0.2 nM | significantly lower than that with ligand (-) |  |  | 3.2 ± 2 nM | 13 fold | 10 ± 2 nM | 4.0 fold |
| CCCc1nc(C(C)(C)O)c(C(N)=O)n1Cc1ccc(-c2cc(Cc3ccc(O)cc3)ccc2-c2nnn[nH]2)cc1 [R794847] | 0.7 fold | 34 ± 11 nM | significantly lower than those with olmesartan and R239470 |  |  | 37 ± 23 nM | 8 fold | 391 ± 54 nM | 0.8 fold |

Source: PMC3375280 (PLoS ONE, 2012)
